Measured values as given in patent publication US11434242B2, “Dopamine-b-hydroxylase inhibitors” (BIAL-PORTELA & Cª, S.A., priority 2017, dated 2022).

Target: T1, Dopamine beta hydroxylase (Homo sapiens, UniProt P09172)
T1 construct: 125 μl of plasma; tissue Instituto Português do Sangue Transplantação; host or cells: human plasma from healthy donors
T1 sequence (P09172 40-617 limits assumed): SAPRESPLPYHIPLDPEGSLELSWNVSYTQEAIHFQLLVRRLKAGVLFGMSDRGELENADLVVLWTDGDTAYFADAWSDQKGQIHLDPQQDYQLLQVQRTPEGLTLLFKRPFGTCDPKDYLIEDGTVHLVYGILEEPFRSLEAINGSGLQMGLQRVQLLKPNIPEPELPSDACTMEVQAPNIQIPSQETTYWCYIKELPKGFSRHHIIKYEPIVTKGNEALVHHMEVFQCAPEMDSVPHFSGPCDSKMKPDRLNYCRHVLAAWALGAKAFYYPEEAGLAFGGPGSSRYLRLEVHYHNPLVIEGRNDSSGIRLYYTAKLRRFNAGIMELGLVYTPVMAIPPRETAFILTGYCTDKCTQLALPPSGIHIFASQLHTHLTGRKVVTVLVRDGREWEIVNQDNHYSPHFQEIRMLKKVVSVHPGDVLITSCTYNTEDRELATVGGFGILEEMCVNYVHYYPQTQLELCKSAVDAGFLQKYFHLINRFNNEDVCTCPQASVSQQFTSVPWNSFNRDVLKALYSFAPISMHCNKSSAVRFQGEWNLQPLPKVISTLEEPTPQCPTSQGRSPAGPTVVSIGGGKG
Experiment: Dopamine beta hydroxylase activity in human plasma
Type: biochemical
Conditions: for Plasma (0.01 μM), activity in % of control: inhibitor 0.01 μM; for Plasma (0.1 μM), activity in % of control: inhibitor 0.1 μM
In short: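 Octopamine production from tyramine over 45 min at 37° C, measured photometrically at 330 nm after SCX extraction and periodate oxidation against an octopamine standard curve, indicates plasma DβH activity. Compounds tested at final 10, 100 and 1000 nM in human plasma, pH 5.0 cofactor buffer, 10 min preincubation; results as % of control.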

Row | SMILES | Plasma (0.01 μM), activity in % of control | Plasma (0.1 μM), activity in % of control
1 | CN(C(=O)Cc1[nH]c(=S)n2c1[C@@H]1C[C@]1(c1c(F)ccc(Cl)c1F)C2)C1CCOCC1 [Example 381, 2-((5aS,6aR)-5a-(3-chloro-2,6-difluorophenyl)-3-thioxo-2,3,5,5a,6,6a-hexahydrocyclopropa[3,4]pyrrolo[1,2-c]imidazol-1-yl)-N-methyl-N-(tetrahydro-2H-pyran-4-yl)acetamide] | 30.0 % of control | 3.2 % of control
2 | O=C(Cc1[nH]c(=S)n2c1C[C@H](c1c(F)c(F)cc(F)c1F)C2)NC1CCOCC1 [Example 377, (R)—N-(tetrahydro-2H-pyran-4-yl)-2-(3-thioxo-6-(2,3,5,6-tetrafluorophenyl)-2,5,6,7-tetrahydro-3H-pyrrolo[1,2-c]imidazol-1-yl)acetamide] | 102.0 % of control | 56.8 % of control
3 | Cn1c(CC(=O)N2CCC[C@H]2CF)c2n(c1=S)C[C@@H](c1c(F)ccc(F)c1F)C2 [Example 296, 1-((S)-2-(fluoromethyl)pyrrolidin-1-yl)-2-((R)-2-methyl-3-thioxo-6-(2,3,6-trifluorophenyl)-2,5,6,7-tetrahydro-3H-pyrrolo[1,2-c]imidazol-1-yl)ethan-1-one] | 89.2 % of control | 74.5 % of control
4 | CN(C(=O)Cc1c2n(c(=S)n1C)C[C@@]1(c3c(F)ccc(Cl)c3F)C[C@@H]21)C1CCOC1 (stereo partly drawn) [Example 442, 2-((5aS,6aR)-5a-(3-chloro-2,6-difluorophenyl)-2-methyl-3-thioxo-2,3,5,5a,6,6a-hexahydrocyclopropa[3,4]pyrrolo[1,2-c]imidazol-1-yl)-N-methyl-N-(tetrahydrofuran-3-yl)acetamide] | 43.6 % of control | 10.0 % of control
5 | Cn1c(CC(=O)N[C@@H]2CCCOC2)c2n(c1=S)C[C@@H](c1c(F)ccc(F)c1F)C2 [Example 255, 2-((R)-2-methyl-3-thioxo-6-(2,3,6-trifluorophenyl)-2,5,6,7-tetrahydro-3H-pyrrolo[1,2-c]imidazol-1-yl)-N—((R)-tetrahydro-2H-pyran-3-yl)acetamide] | 71.8 % of control | 24.6 % of control
6 | [2H]C([2H])([2H])n1c(CC(=O)N2CCOCC2)c2n(c1=S)C[C@H](c1c(F)ccc(Cl)c1F)C2 [Example 460, (S)-2-(6-(3-chloro-2,6-difluorophenyl)-2-(methyl-d)-3-thioxo-2,5,6,7-tetrahydro-3H-pyrrolo[1,2-c]imidazol-1-yl)-1-morpholinoethan-1-one] | 43.9 % of control | 18.2 % of control
7 | CS(=O)(=O)C1CCN(C(=O)Cc2[nH]c(=S)n3c2C[C@H](c2c(F)ccc(Br)c2F)C3)CC1 [Example 126, (R)-2-(6-(3-bromo-2,6-difluorophenyl)-3-thioxo-2,5,6,7-tetrahydro-3H-pyrrolo[1,2-c]imidazol-1-yl)-1-(4-(methylsulfonyl)piperidin-1-yl)ethan-1-one] | 100.2 % of control | 40.2 % of control
8 | CN(C)C(=O)Cc1[nH]c(=S)n2c1C[C@H](c1c(F)c(F)cc(F)c1F)C2 [Example 30, (R)—N,N-dimethyl-2-(6-(2,3,5,6-tetrafluorophenyl)-3-thioxo-2,5,6,7-tetrahydro-3H-pyrrolo[1,2-c]imidazol-1-yl)acetamide] | 92.0 % of control | 73.2 % of control
9 | Cn1c(CC(=O)N[C@@H]2CCCOC2)c2n(c1=S)C[C@@H](c1c(F)c(F)cc(F)c1F)C2 [Example 278, 2-((R)-2-methyl-6-(2,3,5,6-tetrafluorophenyl)-3-thioxo-2,5,6,7-tetrahydro-3H-pyrrolo[1,2-c]imidazol-1-yl)-N—((R)-tetrahydro-2H-pyran-3-yl)acetamide] | 84.2 % of control | 62.0 % of control
